Source: patent publication US10975060B2, “High relaxivity gadolinium chelate compounds for use in magnetic resonance imaging” (BAYER PHARMA AKTIENGESELLSCHAFT, priority 2016, dated 2021)
Like-named read-outs stand apart in the source and are kept apart here.

Columns and labels:
[1] = Relaxivity measurements at 1.4 T (MiniSpec mq60, 60 MHz, 37 °C) in water and human plasma; type: physicochemical; settings: 1.41 T, normalized to Gd
Procedure: Relaxivity Measurements at 1.4 T
Relaxivity measurements at 1.41 T were performed using a MiniSpec mq60 spectrometer (Bruker Analytik, Karlsruhe, Germany) operating at a resonance frequency of 60 MHz and a temperature of 37° C. The T1 relaxation times were determined using the standard inversion recovery (IR) method with a fixed relaxation delay of at least 5×T1. The variable inversion time (TI) was calculated automatically by the standard software of the MiniSpec mq60 (8 steps). The T2 measurements were done by using a Carr-Purcell-Meiboom-Gill (CPMG) pulse sequence, applying a relaxation delay of at least 5×T1.
Each relaxivity measurement was performed using three different Gd concentrations (3 concentrations between 0.05 and 2 mM). The T1 and T2 relaxation times of the example compounds 1 to 10 were measured in different media for example in water and human plasma. Human plasma preparation: For each experiment fresh blood was taken from a volunteer using 10 mL citrate-tubes (Sarstedt S-Monovette 02.1067.001, 10 mL, Citrate). The 10 mL citrate-tubes were carefully inverted 10 times to mix blood and anticoagulant and centrifuged for 15 minutes at 1811 g at room temperature (Eppendorf, Centrifuge 5810R).
The relaxivities ri (where i=1, 2) were calculated on the basis of the measured relaxation rates Ri in water and plasma: Ri=Ri(0)+ri[CGd], where Ri(0) represent the relaxation rate of the respective solvent and CGd the concentration of the compound normalized to the Gadolinium. The Gadolinium concentrations of the investigated solutions were verified by Inductively Coupled Plasma Mass Spectrometry (ICP-MS Agilent 7500a, Waldbronn, Germany).

[2] = Relaxivity measurements at 3.0 T (whole body MRI scanner, 37 °C) in water and human plasma; type: physicochemical; settings: normalized to Gd, average ± standard deviation
Procedure: Relaxivity Measurements at 3.0 T
Relaxivity measurements at 3.0 T were performed with a whole body 3.0 T MRI Scanner (Philips Intera, Philips Healthcare, Hamburg, Germany) using a knee-coil (SENSE-Knee-8, Philips Healthcare, Hamburg, Germany). The sample tubes (CryoTubetm Vials, Thermo Scientific 1.8 mL, Roskilde, Denmark) were positioned in 3 rows of 4 and 5 tubes in a plastic holder in a box filled with water. The temperature was adjusted to 37° C. For the MRI sequence the shortest possible echo-time (TE) with 7.46 milliseconds was used. The inversion times were chosen to optimize the sequence to measure T1 values corresponding to the estimated T1 range of all relaxation times of contrast media containing solutions. The following inversion times (TIs) were applied: 50, 100, 150, 200, 300, 500, 700, 1000, 1400, 2100, 3200, and 4500 milliseconds. The sequence was run with a constant relaxation delay of 3.4 seconds after the registration of the last echo (variable TR in the range from 3450 to 7900 milliseconds). For details of the fit procedure, see Rohrer et. al. (Invest. Radiol. 2005; 40, 11: 715-724). The experimental matrix of the phantom measurement was 320×320.
The relaxivities were evaluated using three different concentrations of each compound (3 concentrations between 0.05 and 2 mM).
The T1 relaxation times of Example compounds were measured in water and human plasma. Human plasma preparation: For each experiment fresh blood was taken from a volunteer using 10 mL citrate-tubes (Sarstedt S-Monovette 02.1067.001, 10 mL, Citrate). The 10 mL citrate-tubes were carefully inverted 10 times to mix blood and anticoagulant and centrifuged for 15 minutes at 1811 g at room temperature (Eppendorf, Centrifuge 5810R).
The relaxivities ri (where i=1, 2) were calculated on the basis of the measured relaxation rates Ri in water and plasma: Ri=Ri(0)+ri[CGd], where Ri(0) represent the relaxation rate of the respective solvent and CGd the concentration of the compound normalized to the Gadolinium (Table 2).

[3] = Water solubility (exploratory, 10 mM Tris-HCl, 20 °C); type: physicochemical; settings: water (10 mM Tris-HCl buffer), pH 7.4
Procedure: The exploratory water solubilities of the compounds were determined at room temperature (20° C.) in 0.5 mL buffer solution (10 mM Tris-HCl) in the microcentrifuge tubes (Eppendorf, 2.0 mL safe-lock caps). The solid compounds were added stepwise to the buffer solution. The suspension was mixed using a shaker (Heidolph Reax 2000) and treated 5 min in an ultrasound bath (Bandelin, Sonorex Super RK255H).

[4] = Dynamic CT diffusion phantom study (dialysis cassette in fetal bovine serum); type: physicochemical; settings: dialysis cassette 20,000 MWCO, 20 mmol Gd/L, CT signal over 30 h
Procedure: The described dynamic CT diffusion study compares the ability of Examples 1-10 and Reference compounds 1 and 4 to pass a semipermeable membrane (20 kDa). A 128-row clinical CT device (SOMATOM Definition, 128; Siemens Healthcare, Forchheim, Germany) was used to monitor the diffusion through a semipermeable membrane at 100 kV and 104 mA. Single measurements were performed at 0 min, 1 min, 2 min, 3 min, 5 min, 10 min, 15 min, 20 min, 30 min, 45 min, 60 min, 2 h, 3 h, 5 h, 7 h, 22 h, 24 h, 30 h after placing the dialysis cassette (Slide-A-Lyser, 20,000 MWCO, 0.1-0.5 mL Capacity, Thermo Scientific, Roskilde, Denmark) filled with contrast agent in fetal bovine serum solution (FBS, Sigma, F7524). The images were reconstructed with a slice thickness of 2.4 mm and a B30 convolution kernel. The used concentration in the dialysis cassettes of the investigated Examples 1-10 and Reference compounds 1 and 4 was 20 mmol Gd/L.
The imaging results for all investigated Examples and the Reference compounds 1 and 4 for the time points 0 min and 30 h after placing the cassettes in the FBS solution are depicted in FIG. 1. For image analysis, regions of interest were manually drawn on 1 centrally located slice for each time point (a representative measurement region is indicated in FIG. 1: Image RC1).

[5] = 37 °C, cited from earlier work
[6] = 1.5 T, bovine plasma instead of human plasma, from Rohrer et al.
[7] = 3.0 T, plasma, reference compounds marked ^ (Rohrer et al., bovine plasma per Table 1 footnote)
[8] = 3.0 T, reference compounds marked ^ (Rohrer et al. per Table 1 footnote)

Molecule	r1 human plasma [1]	r1 water [1]	r1 human plasma ([2]; human plasma)	r1 water ([2]; water)	Solubility [3]	Diffusion half-live (20 kDa) [4]	r1 human plasma [5, 6]	r1 water ([5]; 1.5 T, from Rohrer et al.)	r1 human plasma [5, 7]	r1 water [5, 8]
CCN(CC(=O)NCC(CNC(=O)CN(CC)C(=O)CN1CCN(CC(=O)[O-])CCN(CC(=O)[O-])CCN(CC(=O)[O-])CC1)(CNC(=O)CN(CC)C(=O)CN1CCN(CC(=O)[O-])CCN(CC(=O)[O-])CCN(CC(=O)[O-])CC1)CNC(=O)CN(CC)C(=O)CN1CCN(CC(=O)[O-])CCN(CC(=O)[O-])CCN(CC(=O)[O-])CC1)C(=O)CN1CCN(CC(=O)[O-])CCN(CC(=O)[O-])CCN(CC(=O)[O-])CC1.[Gd+3].[Gd+3].[Gd+3].[Gd+3] [Example 2, Tetragadolinium [4,10-bis(carboxylatomethyl)-7-{3,13-diethyl-8,8-bis({[(ethyl{[4,7,10-tris(carboxylatomethyl)-1,4,7,10-tetraazacyclododecan-1-yl]acetyl}amino)acetyl]-amino}methyl)-2,5,11,14-tetraoxo-15-[4,7,10-tris(carboxylatomethyl)-1,4,7,10-tetraaza-cyclododecan-1-yl]-3,6,10,13-tetraazapentadec-1-yl}-1,4,7,10-tetraazacyclododecan-1-yl]acetate]	11.6 L/mmol/s	10.4 L/mmol/s	11.3 ± 0.1 L/mmol/s	9.4 ± 0.1 L/mmol/s	>1000 mg/100 mL	13.3 h	–	–	–	–
O=C([O-])CN1CCN(CC(=O)[O-])CCN(CC(=O)N(CC(=O)NCC(CNC(=O)CN(C(=O)CN2CCN(CC(=O)[O-])CCN(CC(=O)[O-])CCN(CC(=O)[O-])CC2)c2ccccc2)(CNC(=O)CN(C(=O)CN2CCN(CC(=O)[O-])CCN(CC(=O)[O-])CCN(CC(=O)[O-])CC2)c2ccccc2)CNC(=O)CN(C(=O)CN2CCN(CC(=O)[O-])CCN(CC(=O)[O-])CCN(CC(=O)[O-])CC2)c2ccccc2)c2ccccc2)CCN(CC(=O)[O-])CC1.[Gd+3].[Gd+3].[Gd+3].[Gd+3] [Example 9, Tetragadolinium [4,10-bis(carboxylatomethyl)-7-{2,5,11,14-tetraoxo-3,13-diphenyl-8,8-bis({[(phenyl{[4,7,10-tris(carboxylatomethyl)-1,4,7,10-tetraazacyclododecan-1-yl]-acetyl}amino)acetyl]amino}methyl)-15-[4,7,10-tris(carboxylatomethyl)-1,4,7,10-tetra-azacyclododecan-1-yl]-3,6,10,13-tetraazapentadec-1-yl}-1,4,7,10-tetraazacyclododecan-1-yl]acetate]	12.0 L/mmol/s	11.0 L/mmol/s	–	–	>1000 mg/100 mL	15.1 h	–	–	–	–
O=C([O-])CN1CCN(CC(=O)[O-])CCN(CC(=O)N(CC(=O)NCC(CNC(=O)CN(Cc2ccccc2)C(=O)CN2CCN(CC(=O)[O-])CCN(CC(=O)[O-])CCN(CC(=O)[O-])CC2)(CNC(=O)CN(Cc2ccccc2)C(=O)CN2CCN(CC(=O)[O-])CCN(CC(=O)[O-])CCN(CC(=O)[O-])CC2)CNC(=O)CN(Cc2ccccc2)C(=O)CN2CCN(CC(=O)[O-])CCN(CC(=O)[O-])CCN(CC(=O)[O-])CC2)Cc2ccccc2)CCN(CC(=O)[O-])CC1.[Gd+3].[Gd+3].[Gd+3].[Gd+3] [Example 10, Tetragadolinium [4,10-bis(carboxylatomethyl)-7-{3,13-dibenzyl-8,8-bis({[(benzyl{[4,7,10-tris(carboxylatomethyl)-1,4,7,10-tetraazacyclododecan-1-yl]acetyl}amino)-acetyl]amino}methyl)-2,5,11,14-tetraoxo-15-[4,7,10-tris(carboxylatomethyl)-1,4,7,10-tetraazacyclododecan-1-yl]-3,6,10,13-tetraazapentadec-1-yl}-1,4,7,10-tetraazacyclo-dodecan-1-yl]acetate]	13.3 L/mmol/s	11.5 L/mmol/s	–	–	>1000 mg/100 mL	15.0 h	–	–	–	–
CNC[C@H](O)[C@@H](O)[C@H](O)[C@H](O)CO.CNC[C@H](O)[C@@H](O)[C@H](O)[C@H](O)CO.O=C([O-])CN(CCN(CC(=O)[O-])CC(=O)O)CCN(CC(=O)[O-])CC(=O)O.[Gd+3] [RC2, gadopentetate dimeglumine]	–	–	–	–	–	–	4.1 L/mmol/s	3.3 L/mmol/s	3.7 ± 0.2 L/mmol/s	3.1 ± 0.3 L/mmol/s
CCOc1ccc(CC(CN(CCN(CC(=O)[O-])CC(=O)[O-])CC(=O)[O-])N(CC(=O)[O-])CC(=O)[O-])cc1.[Gd+3].[Na+].[Na+] (stereo not drawn) [RC3, gadoxetate disodium]	–	–	–	–	–	–	6.9 L/mmol/s	4.7 L/mmol/s	6.2 ± 0.3 L/mmol/s	4.3 ± 0.3 L/mmol/s
Gadomer-17 [RC4]	–	–	–	–	–	No diffusion	16 L/mmol/s	17.3 L/mmol/s	13 ± 1 L/mmol/s	13.0 ± 0.7 L/mmol/s
